Assay results from article PMC10067623, “Characterization of an Aplysia vasotocin signaling system and actions of posttranslational modifications and individual residues of the ligand on receptor activity” (Frontiers in Pharmacology, 2023).
“And” between values parts separate entries of the source, which are not always exact repeats. Equal entries are not always repeated. “Also recorded” adds a separate entry of the source. Where two headings read alike, the source gives them in different places. Bridge positions count the residues as written; N and C are the ends. Peptide text beside a SMILES is read from it. * marks the point of attachment. Acm = CC(=O)NC*

Experiments:
apVTR2 = assay: IP1 accumulation assay, apVTR2 transiently expressed in CHO-K1 cells; format: cell-based, Aplysia californica; details: for apVTR2 log[EC50]: log[EC50] with negative sign as printed, average
apVTR1 = target: T1, apVTR1 (Aplysia californica, UniProt A0ABM1ABB6); assay: cell-based; format: cell-based; details: for activation of apVTR1 (IP1 response), in words / apVTR1 log[EC50]: CHO-K1 cells, without promiscuous Gαq; for apVTR1 log[EC50]: log[EC50] with negative sign as printed, average, n = 3
T1 sequence (A0ABM1ABB6 1-470): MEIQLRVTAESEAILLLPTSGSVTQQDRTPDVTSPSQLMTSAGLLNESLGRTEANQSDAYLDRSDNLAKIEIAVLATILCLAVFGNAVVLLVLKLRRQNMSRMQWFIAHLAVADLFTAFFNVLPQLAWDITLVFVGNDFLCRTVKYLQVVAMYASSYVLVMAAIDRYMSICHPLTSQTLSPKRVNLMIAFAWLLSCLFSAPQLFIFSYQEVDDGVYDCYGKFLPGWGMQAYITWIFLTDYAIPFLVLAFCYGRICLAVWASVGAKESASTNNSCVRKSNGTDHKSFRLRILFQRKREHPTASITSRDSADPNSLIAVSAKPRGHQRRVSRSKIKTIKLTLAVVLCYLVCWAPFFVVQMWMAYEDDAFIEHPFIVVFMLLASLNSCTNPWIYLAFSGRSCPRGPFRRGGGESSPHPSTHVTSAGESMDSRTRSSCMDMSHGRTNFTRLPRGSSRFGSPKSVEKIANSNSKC

Class-A GPCR 3 = assay: IP1 accumulation assay, Class-A GPCR 3 co-transfected with promiscuous Gαq (Gα16) in CHO-K1 cells; format: cell-based, Aplysia californica
[1] = CHO-K1 cells, without promiscuous Gαq, dose-response 10^-12 M to 10^-4 M, n = 3
[2] = n = 3, CHO-K1 cells, without promiscuous Gαq
[3] = co-transfected with promiscuous Gαq (Gα16), 10^-5 M vs 10^-10 M
[4] = CHO-K1 cells, without promiscuous Gαq
[5] = co-transfected with promiscuous Gαq, 10^-5 M vs 10^-10 M (control)

Compound	apVTR2 log[EC50] (apVTR2; [2]) [M]	EC50 (apVTR1; apVTR1 EC50) [µM]	EC50 (apVTR1; apVTR1 log[EC50]) [µM]	activation of Class-A GPCR 3 (IP1 response), in words (Class-A GPCR 3; [3])	EC50 (apVTR2)	also measured
CC(C)[C@@H]1NC(=O)[C@H](Cc2ccccc2)NC(=O)[C@@H](N)CSSC[C@@H](C(=O)N2CCC[C@H]2C(=O)N[C@H](C(=O)NCC(N)=O)[C@@H](C)O)NC(=O)[C@H](CC(N)=O)NC(=O)[C@H](CCCNC(=N)N)NC1=O [Annetocin, reference compound] (H-CFVRNCPTG-NH2; disulfide 1-6)	-6.0±0.20	5.6	6.31	do not affect; also recorded: none of the four peptides had any effects	–	EC50 (apVTR2; [1]): 1.1 µM
CC[C@H](C)[C@@H]1NC(=O)[C@H](Cc2ccccc2)NC(=O)[C@@H](N)CSSC[C@@H](C(=O)N2CCC[C@H]2C(=O)N[C@@H](C)C(=O)NCC(N)=O)NC(=O)[C@H](CC(N)=O)NC(=O)[C@H](CCCNC(=N)N)NC1=O [[Ala^8]apVT] (H-CFIRNCPAG-NH2; disulfide 1-6)	–	1.5	1.58	–	–	–
CC[C@H](C)[C@H](NC(=O)[C@H](Cc1ccccc1)NC(=O)[C@@H](N)CS)C(=O)N[C@@H](CCCNC(=N)N)C(=O)N[C@@H](CC(N)=O)C(=O)N[C@@H](CSCNC(C)=O)C(=O)N1CCC[C@H]1C(=O)N[C@@H](CCCCN)C(=O)NCC(N)=O [[Cys(Acm)^6]apVT] (H-CFIRNC(Acm)PKG-NH2; N-terminus assumed)	-5.1±0.21	1.5	1.58	–	7.8 µM	–
CC[C@H](C)[C@@H]1NC(=O)[C@H](Cc2ccccc2)NC(=O)[C@@H](N)CSSC[C@@H](C(=O)N[C@@H](C)C(=O)N[C@@H](CCCCN)C(=O)NCC(N)=O)NC(=O)[C@H](CC(N)=O)NC(=O)[C@H](CCCNC(=N)N)NC1=O [[Ala^7]apVT] (H-CFIRNCAKG-NH2; disulfide 1-6)	–	1.1	1	–	–	–
Urotensin II	–	–	–	not responsive to any of these	–	–
Vasopressin [reference compound]	–	–	–	none of the four peptides had any effects	–	activation of apVTR2 (IP1 response), in words (apVTR2; [4]): no effects; activation of apVTR1 (IP1 response), in words (apVTR1): no effects; activation of Class-A GPCR 3 (IP1 response), in words (Class-A GPCR 3; co-transfected with promiscuous Gαq (Gα16), 10^-5 M vs 10^-10 M, listed as Vasopressin): do not affect
CC[C@H](C)[C@H](NC(=O)[C@H](Cc1ccccc1)NC(=O)[C@@H](N)CSCNC(C)=O)C(=O)N[C@@H](CCCNC(=N)N)C(=O)N[C@@H](CC(N)=O)C(=O)N[C@@H](CS)C(=O)N1CCC[C@H]1C(=O)N[C@@H](CCCCN)C(=O)NCC(N)=O [[Cys(Acm)^1]apVT] (H-C(Acm)FIRNCPKG-NH2; N-terminus assumed)	-5.1±0.21	2.9	3.16	–	7.8 µM	–
CC[C@H](C)[C@@H]1NC(=O)[C@H](Cc2ccccc2)NC(=O)[C@@H](N)CSSC[C@@H](C(=O)N2CCC[C@H]2C(=O)N[C@@H](CCCCN)C(=O)NCC(N)=O)NC(=O)[C@H](CC(N)=O)NC(=O)[C@H](CCCNC(=N)N)NC1=O [apVT, Aplysia vasotocin] (H-CFIRNCPKG-NH2; disulfide 1-6; N-terminus assumed)	-7.1±0.18	0.07	–	–	0.077 µM and 0.07 µM	screening of apVTR2 activation (IP1 response), in words (apVTR2; [5]): responded; apVTR2 log[EC50] (apVTR2; n = 3, CHO-K1 cells, without promiscuous Gαq, listed as apVT'): -7.2±0.15 M; apVTR1 EC50 (apVTR1): 0.065 µM; screening of apVTR1 activation (IP1 response), in words (apVTR1; [5]): responded; apVTR1 log[EC50] (apVTR1): -7.2±0.036 M; apVTR1 log[EC50] (apVTR1; listed as apVT'): -7.2±0.07 M; activation of Class-A GPCR 3 (IP1 response), in words (Class-A GPCR 3): no response; also recorded: not responsive
CC[C@H](C)[C@@H]1NC(=O)[C@H](Cc2ccccc2)NC(=O)[C@@H](N)CSSC[C@@H](C(=O)N2CCC[C@H]2C(=O)N[C@@H](CCCCN)C(=O)NCC(=O)O)NC(=O)[C@H](CC(N)=O)NC(=O)[C@H](CCCNC(=N)N)NC1=O [apVT-OH] (H-CFIRNCPKG-OH; disulfide 1-6; N-terminus assumed)	-6.0±0.06	3.5	3.16	–	1 µM	–
CC[C@H](C)[C@@H]1NC(=O)[C@H](Cc2ccccc2)NC(=O)[C@@H](N)CSSC[C@@H](C(=O)N2CCC[C@H]2C(=O)N[C@@H](CCCCN)C(=O)N[C@@H](C)C(N)=O)NC(=O)[C@H](CC(N)=O)NC(=O)[C@H](CCCNC(=N)N)NC1=O [[Ala^9]apVT] (H-CFIRNCPKA-NH2; disulfide 1-6)	–	1	1	–	–	–
C[C@@H]1NC(=O)[C@H](Cc2ccccc2)NC(=O)[C@@H](N)CSSC[C@@H](C(=O)N2CCC[C@H]2C(=O)N[C@@H](CCCCN)C(=O)NCC(N)=O)NC(=O)[C@H](CC(N)=O)NC(=O)[C@H](CCCNC(=N)N)NC1=O [[Ala^3]apVT] (H-CFARNCPKG-NH2; disulfide 1-6)	–	30	31.6	–	–	–
CC[C@H](C)[C@@H]1NC(=O)[C@H](Cc2ccccc2)NC(=O)[C@@H](N)CSSC[C@@H](C(=O)N2CCC[C@H]2C(=O)N[C@@H](CCCCN)C(=O)NCC(N)=O)NC(=O)[C@H](C)NC(=O)[C@H](CCCNC(=N)N)NC1=O [[Ala^5]apVT] (H-CFIRACPKG-NH2; disulfide 1-6)	–	6	6.31	–	–	–
AstC	–	–	–	not responsive to any of these	–	–
CC[C@H](C)[C@H](NC(=O)[C@H](Cc1ccccc1)NC(=O)[C@@H](N)CS)C(=O)N[C@@H](CCCNC(=N)N)C(=O)N[C@@H](CC(N)=O)C(=O)N[C@@H](CS)C(=O)N1CCC[C@H]1C(=O)N[C@@H](CCCCN)C(=O)NCC(=O)O [apVT'-OH] (H-CFIRNCPKG-OH; N-terminus assumed)	-5.6±0.18	2.2	2	–	2.2 µM	–
CC[C@H](C)[C@@H]1NC(=O)[C@H](Cc2ccc(O)cc2)NC(=O)[C@@H](N)CSSC[C@@H](C(=O)N2CCC[C@H]2C(=O)N[C@@H](CC(C)C)C(=O)NCC(N)=O)NC(=O)[C@H](CC(N)=O)NC(=O)[C@H](CCC(N)=O)NC1=O [Oxytocin, reference compound]	-5.4±0.016	16	15.8	do not affect; also recorded: none of the four peptides had any effects	–	activation of apVTR2 (IP1 response), in words (apVTR2; [4]): weak activation effect; EC50 (apVTR2; [1]): 3.6 µM; activation of apVTR1 (IP1 response), in words (apVTR1): weak activation effect
CC[C@H](C)[C@H](NC(=O)[C@H](Cc1ccccc1)NC(=O)[C@@H](N)CSCNC(C)=O)C(=O)N[C@@H](CCCNC(=N)N)C(=O)N[C@@H](CC(N)=O)C(=O)N[C@@H](CSCNC(C)=O)C(=O)N1CCC[C@H]1C(=O)N[C@@H](CCCCN)C(=O)NCC(N)=O [[Cys(Acm)^1,6]apVT] (H-C(Acm)FIRNC(Acm)PKG-NH2; N-terminus and C-terminus assumed)	-4.3±0.57	12	12.6	–	47 µM	–
